Assay results published in ChEMBL document CHEMBL1201862, “PubChem BioAssay data set” (2004).
Active and inactive are the calls of the source.

Columns and labels:
[1] = target: Peroxisome proliferator-activated receptor gamma/Nuclear receptor coactivator 2 (Homo sapiens, UniProt P37231); format: functional;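 also: agonist potency for raising coactivator recruitment to the receptor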
[2] = target: Peroxisome proliferator-activated receptor gamma/Nuclear receptor coactivator 1 (Homo sapiens, UniProt P37231); format: functional;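 also: agonist potency as compounds enhance coactivator SRC-1 recruitment to PPARgamma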
[3] = target: Peroxisome proliferator-activated receptor gamma/Nuclear receptor coactivator 3 (Homo sapiens, UniProt P37231); format: functional;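 also: agonist potency for raising coactivator recruitment to the receptor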
[4] = target: T1, NADPH oxidase 1 (Homo sapiens, UniProt Q9Y5S8); format: functional, cell-based;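 also: Cell-based assay with luminescence read-out, IC50 derived from inhibitor dose-response curves; intracellular ROS from endogenous NOX1 in intact HT29 colon cancer cells; potency of inhibitors that lower the ROS luminescence signal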
T1 sequence (Q9Y5S8 whole entry): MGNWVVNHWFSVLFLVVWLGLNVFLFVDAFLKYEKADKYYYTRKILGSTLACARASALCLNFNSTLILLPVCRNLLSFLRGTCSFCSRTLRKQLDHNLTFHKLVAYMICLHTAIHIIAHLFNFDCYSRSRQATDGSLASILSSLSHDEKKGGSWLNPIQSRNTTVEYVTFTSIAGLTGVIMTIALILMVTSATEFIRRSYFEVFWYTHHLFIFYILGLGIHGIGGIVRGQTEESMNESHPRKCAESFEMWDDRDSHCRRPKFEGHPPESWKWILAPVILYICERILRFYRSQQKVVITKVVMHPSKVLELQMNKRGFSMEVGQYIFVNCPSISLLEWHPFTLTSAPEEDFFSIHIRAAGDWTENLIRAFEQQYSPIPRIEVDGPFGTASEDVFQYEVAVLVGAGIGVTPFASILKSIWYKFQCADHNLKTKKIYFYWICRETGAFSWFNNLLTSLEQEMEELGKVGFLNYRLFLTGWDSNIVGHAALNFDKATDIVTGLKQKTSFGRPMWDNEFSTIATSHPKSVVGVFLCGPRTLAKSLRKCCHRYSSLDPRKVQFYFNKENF

[5] = target: T2, Leucine aminopeptidase (Plasmodium falciparum 3D7, UniProt Q8IL11); experiment: P. falciparum M17LAP inhibitors, primary screen, biochemical, fluorogenic H-Leu-NHMec substrate, 1536-well (AID 1619); format: functional
T2 sequence (Q8IL11 whole entry): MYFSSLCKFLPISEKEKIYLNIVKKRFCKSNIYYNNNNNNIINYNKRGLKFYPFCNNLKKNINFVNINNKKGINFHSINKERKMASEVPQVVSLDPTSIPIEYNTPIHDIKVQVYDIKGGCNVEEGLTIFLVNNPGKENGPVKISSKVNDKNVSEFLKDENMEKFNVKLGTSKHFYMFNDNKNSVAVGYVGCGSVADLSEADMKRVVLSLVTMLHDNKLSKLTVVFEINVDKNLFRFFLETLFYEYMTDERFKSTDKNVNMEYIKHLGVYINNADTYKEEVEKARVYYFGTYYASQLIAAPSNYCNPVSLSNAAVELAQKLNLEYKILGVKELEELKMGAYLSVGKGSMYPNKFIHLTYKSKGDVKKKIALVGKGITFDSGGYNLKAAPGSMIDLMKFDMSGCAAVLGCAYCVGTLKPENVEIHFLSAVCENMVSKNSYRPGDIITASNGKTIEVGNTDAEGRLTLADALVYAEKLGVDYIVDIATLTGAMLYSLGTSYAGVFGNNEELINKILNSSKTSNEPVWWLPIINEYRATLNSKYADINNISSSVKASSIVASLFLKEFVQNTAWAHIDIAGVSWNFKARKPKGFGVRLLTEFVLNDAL

[6] = target: Cytochrome P450 2C19 (Homo sapiens, UniProt P33261); experiment: Cytochrome panel assay with activity outcomes. Panel member name: p450-cyp2c19 Compounds with AC50 equal or less than 10 uM are considered active; format: functional; conditions: read-out: AC50
[7] = target: T3, Replicative DNA helicase DnaB (Mycobacterium tuberculosis, UniProt P9WMR3); experiment: DnaB intein splicing inhibitors, dose response, biochemical, cell-free fluorescence (AID 449749); format: functional
T3 sequence (P9WMR3 whole entry): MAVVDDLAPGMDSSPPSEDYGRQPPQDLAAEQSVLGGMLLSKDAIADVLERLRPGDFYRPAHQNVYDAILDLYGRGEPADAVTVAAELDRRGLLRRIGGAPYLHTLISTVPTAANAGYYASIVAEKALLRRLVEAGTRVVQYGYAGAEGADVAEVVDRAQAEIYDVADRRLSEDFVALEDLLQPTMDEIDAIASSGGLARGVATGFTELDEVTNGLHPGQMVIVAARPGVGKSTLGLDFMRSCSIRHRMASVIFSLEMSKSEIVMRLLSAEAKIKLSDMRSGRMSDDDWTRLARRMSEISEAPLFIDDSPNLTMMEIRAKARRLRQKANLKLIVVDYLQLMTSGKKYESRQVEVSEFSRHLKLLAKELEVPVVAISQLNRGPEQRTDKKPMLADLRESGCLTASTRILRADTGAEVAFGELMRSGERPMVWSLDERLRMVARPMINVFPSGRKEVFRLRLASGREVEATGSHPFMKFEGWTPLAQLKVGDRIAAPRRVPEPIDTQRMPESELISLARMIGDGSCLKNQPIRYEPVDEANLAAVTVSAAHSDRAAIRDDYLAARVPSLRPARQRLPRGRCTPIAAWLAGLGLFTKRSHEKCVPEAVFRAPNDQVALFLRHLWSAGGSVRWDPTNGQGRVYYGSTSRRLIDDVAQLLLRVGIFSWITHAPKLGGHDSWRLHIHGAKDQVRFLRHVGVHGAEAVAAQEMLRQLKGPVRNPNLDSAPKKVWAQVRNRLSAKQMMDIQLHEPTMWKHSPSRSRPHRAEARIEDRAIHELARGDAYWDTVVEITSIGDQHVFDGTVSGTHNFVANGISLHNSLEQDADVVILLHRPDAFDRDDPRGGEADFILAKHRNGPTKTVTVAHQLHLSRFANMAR

[8] = target: T4, Protein RecA (Mycobacterium tuberculosis, UniProt P9WHJ3); experiment: Fluorescence Cell-Free Homogeneous Dose Retest to Identify Inhibitors of RecA-Intein Splicing Activity. [Related pubchem assays (depositor defined):AID2097, AID2223, AID489010, AID492950]; format: functional
T4 sequence (P9WHJ3 whole entry): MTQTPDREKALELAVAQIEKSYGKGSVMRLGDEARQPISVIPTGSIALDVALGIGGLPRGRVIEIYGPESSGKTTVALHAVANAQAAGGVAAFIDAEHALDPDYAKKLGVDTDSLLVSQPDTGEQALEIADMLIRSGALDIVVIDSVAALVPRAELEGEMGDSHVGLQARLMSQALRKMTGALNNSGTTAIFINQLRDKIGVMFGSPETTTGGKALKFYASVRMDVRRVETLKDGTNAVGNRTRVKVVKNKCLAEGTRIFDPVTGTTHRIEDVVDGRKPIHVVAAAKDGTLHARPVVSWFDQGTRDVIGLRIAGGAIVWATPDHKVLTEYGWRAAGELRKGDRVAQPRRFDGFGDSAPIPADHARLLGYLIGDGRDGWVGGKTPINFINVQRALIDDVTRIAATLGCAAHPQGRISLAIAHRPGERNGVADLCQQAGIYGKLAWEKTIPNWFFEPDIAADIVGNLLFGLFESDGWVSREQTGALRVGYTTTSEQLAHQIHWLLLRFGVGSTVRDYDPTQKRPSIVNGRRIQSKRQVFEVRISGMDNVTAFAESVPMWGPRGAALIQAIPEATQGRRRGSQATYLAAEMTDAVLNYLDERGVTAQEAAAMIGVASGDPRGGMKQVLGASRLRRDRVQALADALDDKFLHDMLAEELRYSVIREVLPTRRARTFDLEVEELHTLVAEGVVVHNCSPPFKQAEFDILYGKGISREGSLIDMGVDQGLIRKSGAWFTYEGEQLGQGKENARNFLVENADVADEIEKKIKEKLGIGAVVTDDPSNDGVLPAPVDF

[9] = target: Kallikrein-7 (Homo sapiens, UniProt P49862); experiment: Fluorescence Intensity-based biochemical primary high throughput dose response assay to identify activators of kallikrein-7 (K7) zymogen.
[10] = Luminescence Cell-Based Dose Response to Identify Activators of 5'UTR Stem-Loop Driven Prion Protein mRNA Translation in H4-C Neuroglioblastoma Cells. [Related pubchem assays: 1829 (Project Summary), 1814 (Primary HTS)]; format: functional
[11] = Luminescence Cell-Based Dose Confirmation HTS to Identify Activators of 5'UTR Stem-Loop Driven Alpha-Synuclein mRNA Translation in H4 Neuroglioblastoma Cells. [Related pubchem assays: 1829 (Project Summary), 1814 (Primary HTS)]; format: functional
[12] = Luminescence Cell-Based Dose Response HTS to Identify Activators of Luciferase Translation or Activity in H4 […] Cells. [Related pubchem assays: 1829 (Project Summary), 1814 (Primary HTS)]; format: functional
[13] = system: H4; experiment: Luminescence Cell-Based Dose Response HTS to Identify Activators of 5'UTR Stem-Loop Driven Prion Protein mRNA Translation in H4 Neuroglioblastoma Cells. [Related pubchem assays: 1829 (Project Summary), 1814 (Primary HTS)]; format: functional; conditions: Homo sapiens
[14] = Luminescence Cell-Based Dose Response to Identify Activators of Luciferase Translation or Activity in H4-C Neuroglioblastoma Cells. [Related pubchem assays: 1829 (Project Summary), 1814 (Primary HTS)]; format: functional
[15] = Luminescence Cell-Based Dose Confirmation to Identify Activators of 5'UTR Stem-Loop Driven Alpha-Synuclein mRNA Translation in H4 Neuroglioblastoma Cells. [Related pubchem assays: 1829 (Project Summary), 1814 (Primary HTS)]; format: functional
[16] = inhibitors of Vif binding to APOBEC3G peptide, primary screen, biochemical, TR-FRET, GST-Vif 1-94, biotin-A3G peptide, dose response retest (AID 1117319); format: functional;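 also: TR-FRET signal of purified GST-Vif binding a biotinylated A3G peptide; inhibitors lower the FRET signal by blocking Vif and A3G binding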
[17] = inhibitors of firefly luciferase expression or activity, dose response, H4 neuroglioma cells, luminescence (AID 1990); format: functional, cell-based
[18] = Luminescence Cell-Based Dose Response HTS to Identify Inhibitors of 5'UTR Stem-Loop Driven Prion Protein mRNA Translation in H4 Neuroglioblastoma Cells. [Related pubchem assays: 1827 (Project Summary), 1813 (Primary HTS)]; format: functional
[19] = inhibitors of SNCA 5'UTR-driven reporter translation, confirmation, H4 neuroglioma cells, luminescence (AID 1988); format: functional, cell-based
[20] = P. falciparum late gametocyte killing, dose response, luminescence (AID 1117278); format: functional, cell-based;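 also: gametocytes exposed to compound for 24 hours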
[21] = Jurkat T cell cytotoxicity, dose response, cytotoxicity control for P. falciparum gametocyte viability project, luminescence (AID 1117277); format: functional, cell-based;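 also: potency reflects loss of cellular ATP meaning fewer viable cells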
[22] = P. falciparum 3D7-ScDHODH growth inhibitors, dose response, SYBR Green, dry powder samples (AID 1159570); format: functional, cell-based;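 also: parasite growth measured after 72 hours of compound exposure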
[23] = P. falciparum Dd2 growth inhibitors, dose response, SYBR Green, cherry-picked samples (AID 1159567); format: functional, cell-based
[24] = P. falciparum Dd2 growth inhibitors, dose response, SYBR Green, dry powder samples (AID 1159566); format: functional, cell-based;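 also: potency for growth inhibition with lower SYBR green DNA signal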
[25] = P. falciparum ATP4 D1247Y mutant growth inhibitors, dose response, NITD609-resistant line, SYBR Green, dry powder (AID 1159571); format: functional, cell-based;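 also: parasites synchronized at ring stage by sorbitol before testing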

Sequence of Peroxisome proliferator-activated receptor gamma/Nuclear receptor coactivator 2 (P37231 whole entry): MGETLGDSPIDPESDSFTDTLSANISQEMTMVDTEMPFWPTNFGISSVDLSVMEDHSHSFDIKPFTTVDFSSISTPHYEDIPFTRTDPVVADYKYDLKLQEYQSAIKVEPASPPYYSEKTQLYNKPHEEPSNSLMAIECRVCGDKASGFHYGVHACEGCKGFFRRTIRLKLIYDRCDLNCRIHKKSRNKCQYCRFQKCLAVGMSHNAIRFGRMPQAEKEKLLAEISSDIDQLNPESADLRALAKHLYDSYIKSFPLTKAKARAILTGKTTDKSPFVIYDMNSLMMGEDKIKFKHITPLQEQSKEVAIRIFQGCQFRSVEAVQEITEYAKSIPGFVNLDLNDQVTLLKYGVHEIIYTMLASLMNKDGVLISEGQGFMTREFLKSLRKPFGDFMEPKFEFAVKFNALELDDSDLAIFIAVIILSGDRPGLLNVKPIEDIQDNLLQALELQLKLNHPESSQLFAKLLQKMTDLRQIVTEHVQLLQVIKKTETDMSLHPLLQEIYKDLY
Sequence of Peroxisome proliferator-activated receptor gamma/Nuclear receptor coactivator 2 (Q15596 whole entry, further chain): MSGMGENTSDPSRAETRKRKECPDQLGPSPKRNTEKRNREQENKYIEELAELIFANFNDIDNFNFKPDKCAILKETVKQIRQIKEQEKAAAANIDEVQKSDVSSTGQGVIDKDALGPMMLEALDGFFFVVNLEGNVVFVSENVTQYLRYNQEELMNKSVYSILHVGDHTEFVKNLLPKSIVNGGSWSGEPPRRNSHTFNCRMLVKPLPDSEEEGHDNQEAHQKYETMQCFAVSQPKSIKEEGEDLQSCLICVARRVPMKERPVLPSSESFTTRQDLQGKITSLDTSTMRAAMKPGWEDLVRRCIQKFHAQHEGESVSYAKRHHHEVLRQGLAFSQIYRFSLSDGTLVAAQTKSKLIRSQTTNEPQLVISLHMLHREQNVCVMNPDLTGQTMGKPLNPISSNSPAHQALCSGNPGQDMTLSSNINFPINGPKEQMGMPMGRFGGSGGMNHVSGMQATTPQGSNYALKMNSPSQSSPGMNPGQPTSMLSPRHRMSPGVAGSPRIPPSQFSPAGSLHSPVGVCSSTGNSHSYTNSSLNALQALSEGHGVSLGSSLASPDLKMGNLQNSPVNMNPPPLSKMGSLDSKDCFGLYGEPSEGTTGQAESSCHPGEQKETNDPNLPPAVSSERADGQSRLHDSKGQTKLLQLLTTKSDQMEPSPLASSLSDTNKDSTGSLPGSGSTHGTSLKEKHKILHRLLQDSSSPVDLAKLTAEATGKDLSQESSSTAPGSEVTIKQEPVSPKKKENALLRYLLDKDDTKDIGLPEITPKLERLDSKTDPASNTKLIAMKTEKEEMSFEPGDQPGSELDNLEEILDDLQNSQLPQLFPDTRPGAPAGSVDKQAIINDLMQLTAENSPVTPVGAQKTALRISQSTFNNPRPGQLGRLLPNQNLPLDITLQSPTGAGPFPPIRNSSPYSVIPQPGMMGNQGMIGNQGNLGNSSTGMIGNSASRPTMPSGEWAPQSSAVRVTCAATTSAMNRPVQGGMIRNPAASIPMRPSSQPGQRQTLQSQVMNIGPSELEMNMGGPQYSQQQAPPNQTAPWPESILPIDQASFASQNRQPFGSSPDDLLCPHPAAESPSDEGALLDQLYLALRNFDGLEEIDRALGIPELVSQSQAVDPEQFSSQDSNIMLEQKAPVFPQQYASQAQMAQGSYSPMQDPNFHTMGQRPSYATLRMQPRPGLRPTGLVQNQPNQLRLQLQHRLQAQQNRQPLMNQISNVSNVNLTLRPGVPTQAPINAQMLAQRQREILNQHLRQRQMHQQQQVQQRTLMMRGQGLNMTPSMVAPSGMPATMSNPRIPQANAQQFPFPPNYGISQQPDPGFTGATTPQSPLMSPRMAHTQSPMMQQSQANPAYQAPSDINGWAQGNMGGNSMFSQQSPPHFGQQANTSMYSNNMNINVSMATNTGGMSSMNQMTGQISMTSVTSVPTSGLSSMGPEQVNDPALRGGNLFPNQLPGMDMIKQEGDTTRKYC
Sequence of Peroxisome proliferator-activated receptor gamma/Nuclear receptor coactivator 3 (P37231 whole entry): as the sequence (P37231 whole entry) above
Sequence of Peroxisome proliferator-activated receptor gamma/Nuclear receptor coactivator 3 (Q9Y6Q9 whole entry, further chain): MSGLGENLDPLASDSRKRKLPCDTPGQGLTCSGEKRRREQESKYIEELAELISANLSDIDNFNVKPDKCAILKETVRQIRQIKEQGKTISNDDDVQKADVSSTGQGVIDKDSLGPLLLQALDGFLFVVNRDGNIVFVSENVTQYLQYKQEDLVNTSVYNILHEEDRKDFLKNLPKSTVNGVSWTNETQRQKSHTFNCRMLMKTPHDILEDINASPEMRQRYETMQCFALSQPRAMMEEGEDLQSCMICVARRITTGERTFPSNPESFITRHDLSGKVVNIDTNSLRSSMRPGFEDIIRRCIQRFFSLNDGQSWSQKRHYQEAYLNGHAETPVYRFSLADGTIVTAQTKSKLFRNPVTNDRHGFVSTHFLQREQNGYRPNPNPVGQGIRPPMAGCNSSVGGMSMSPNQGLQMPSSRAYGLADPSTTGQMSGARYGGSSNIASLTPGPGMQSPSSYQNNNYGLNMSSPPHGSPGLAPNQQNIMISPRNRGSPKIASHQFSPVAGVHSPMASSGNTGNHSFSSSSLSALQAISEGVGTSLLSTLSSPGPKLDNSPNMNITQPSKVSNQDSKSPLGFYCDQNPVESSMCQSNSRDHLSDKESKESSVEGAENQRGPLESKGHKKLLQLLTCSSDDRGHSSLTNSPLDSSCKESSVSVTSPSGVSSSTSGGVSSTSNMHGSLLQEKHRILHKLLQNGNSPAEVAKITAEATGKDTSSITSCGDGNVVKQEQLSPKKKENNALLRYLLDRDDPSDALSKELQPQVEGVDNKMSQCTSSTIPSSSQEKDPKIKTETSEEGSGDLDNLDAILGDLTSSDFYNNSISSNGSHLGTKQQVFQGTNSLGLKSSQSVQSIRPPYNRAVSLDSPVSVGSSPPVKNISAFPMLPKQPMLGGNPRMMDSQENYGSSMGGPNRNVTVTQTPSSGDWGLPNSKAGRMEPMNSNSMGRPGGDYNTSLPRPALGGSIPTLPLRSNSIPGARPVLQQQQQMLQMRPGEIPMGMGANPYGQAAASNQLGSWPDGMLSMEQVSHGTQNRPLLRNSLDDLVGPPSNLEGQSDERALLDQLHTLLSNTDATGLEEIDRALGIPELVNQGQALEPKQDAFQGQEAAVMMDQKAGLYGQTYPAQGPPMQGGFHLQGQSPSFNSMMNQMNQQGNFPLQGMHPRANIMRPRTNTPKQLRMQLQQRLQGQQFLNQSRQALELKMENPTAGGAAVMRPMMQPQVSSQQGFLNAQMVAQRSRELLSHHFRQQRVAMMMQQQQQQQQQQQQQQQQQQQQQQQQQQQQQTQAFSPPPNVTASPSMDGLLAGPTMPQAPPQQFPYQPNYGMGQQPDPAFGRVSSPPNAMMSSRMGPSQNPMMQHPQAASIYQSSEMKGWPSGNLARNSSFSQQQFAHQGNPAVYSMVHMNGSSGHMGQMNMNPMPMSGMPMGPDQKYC
Sequence of Kallikrein-7 (P49862 whole entry): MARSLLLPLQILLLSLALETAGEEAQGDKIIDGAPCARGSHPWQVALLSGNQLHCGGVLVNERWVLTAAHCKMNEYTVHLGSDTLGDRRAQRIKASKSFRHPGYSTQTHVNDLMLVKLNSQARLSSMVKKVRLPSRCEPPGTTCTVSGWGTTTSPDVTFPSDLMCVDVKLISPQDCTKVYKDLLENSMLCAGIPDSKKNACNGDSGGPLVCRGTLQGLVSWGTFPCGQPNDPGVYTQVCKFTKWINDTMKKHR
Sequence of Cytochrome P450 2C19 (P33261 whole entry): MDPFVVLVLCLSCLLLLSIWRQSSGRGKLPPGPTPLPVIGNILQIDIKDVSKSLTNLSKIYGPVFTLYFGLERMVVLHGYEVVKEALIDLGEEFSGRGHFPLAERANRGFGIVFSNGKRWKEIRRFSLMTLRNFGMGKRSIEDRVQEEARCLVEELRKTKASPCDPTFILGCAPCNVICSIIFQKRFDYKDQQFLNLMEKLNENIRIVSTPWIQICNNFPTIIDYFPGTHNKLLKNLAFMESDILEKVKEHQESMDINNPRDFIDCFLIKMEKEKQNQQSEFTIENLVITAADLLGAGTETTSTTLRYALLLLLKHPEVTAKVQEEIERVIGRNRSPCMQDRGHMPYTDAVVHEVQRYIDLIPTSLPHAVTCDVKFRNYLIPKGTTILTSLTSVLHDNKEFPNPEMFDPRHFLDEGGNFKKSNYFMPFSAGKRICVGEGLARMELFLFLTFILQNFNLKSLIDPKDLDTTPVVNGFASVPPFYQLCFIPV

CCOC(=O)c1c(NC(=O)C(C)Sc2cn(C)c3ccccc23)sc2c1CCC2 (configuration not stated)
EC50 [1]: 29.5 µM (not active)
EC50 [2]: 29.2 µM (not active)
EC50 [3]: 32.3 µM (not active)

O=C(Oc1cccc(-n2cnnn2)c1)c1sc2ccccc2c1Cl
IC50 [4]: > 17 µM (not active)

N#C/C(=C/c1cn(CC(=O)O)c2ccccc12)c1ccc(F)cc1
IC50 [5]: 21.2 µM (active)

Cc1cc(C)cc(Oc2coc3cc(OC(=O)c4cccs4)ccc3c2=O)c1
AC50 [6]: 2.82 µM (inconclusive)
AC50 [7]: 21.2 µM (active)
EC50 [8]: 18.8 µM (active)
EC50 [9]: 66.8 µM (inactive)

COc1ccc(-c2csc(N3CCSCC3)n2)cc1
EC50 [10]: 0.887 µM (active)
EC50 [11]: 1.64 µM (active)
EC50 [12]: 3.17 µM (active)
EC50 [13]: 0.112 µM (active)
EC50 [14]: 0.375 µM (active)
EC50 [15]: 0.579 µM (active)

NNC(=O)c1cnn(-c2ccccc2)c1-n1cccc1
EC50 [1]: > 79.4 µM (not active)
EC50 [2]: > 79.4 µM (not active)
EC50 [3]: > 79.4 µM (not active)

COc1ccc(OC(=O)c2sc3ccccc3c2Cl)cc1
IC50 [4]: > 17 µM (not active)

COc1ccccc1C1C=C(c2ccc(C)cc2)Nc2nnnn21 (configuration not stated)
EC50 [9]: 23.5 µM (inactive)
IC50 [16]: > 100 µM (active)

COc1cccc(N2CCN(S(=O)(=O)c3ccc4[nH]c(-c5ccccc5)nc4c3)CC2)c1
EC50 [17]: 29.8 µM (active)
EC50 [18]: > 120 µM (not active)
EC50 [19]: > 120 µM (not active)
IC50 [20]: > 109 µM (inactive)
IC50 [21]: > 83.3 µM (inactive)

O=C(Nc1nc2ccc([N+](=O)[O-])cc2s1)c1ccco1
IC50 [20]: > 109 µM (inactive)
IC50 [21]: > 83.2 µM (inactive)

CCSc1n[nH]c2nc3nc4c(C)cccc4c-3nn12
IC50 [20]: > 109 µM (inactive)
IC50 [21]: > 83.3 µM (inactive)

CCOC(=O)N1CCN(C(=O)C2CCCN(S(=O)(=O)c3ccc(C)cc3)C2)CC1 (configuration not stated)
IC50 [16]: > 100 µM (active)

O=C(O)c1ccc(/C=N/Nc2ccc(F)cc2F)cc1
IC50 [5]: 99.4 µM (active)

C[C@@H]1CN([C@H](C)CO)C(=O)c2cc(C#CCc3ccccc3)cnc2O[C@H]1CN(C)C(=O)C1CCC1
AC50 [22]: 2.1 µM (active)
AC50 [23]: 2.18 µM (active)
AC50 [24]: 1.88 µM (active)
AC50 [25]: 1.54 µM (active)

Cc1ccccc1-c1nc(-c2ccccc2)c(-c2ccccc2)[nH]1
IC50 [4]: > 17 µM (not active)
